What was measured:
[1] = system: Solanum lycopersicum αDOX (SEQ ID NO: 8), fatty acid alpha-dioxygenase, Q5WM33, N-terminal His-tag variant SEQ ID NO: 263 (comparative); assay: Alpha-dioxygenase activity assay (oxygen consumption, TON); type: biochemical; conditions: fatty acid 100 µM, enzyme 6 ppm, 50 mM HEPES pH 9.0, 37°C; initial rate of oxygen consumption / enzyme concentration
Text: (§1) Solanum lycopersicum αDOX (SEQ ID NO: 8) is a fatty acid alpha-dioxygenase that converts fatty acids into the corresponding 2-hydroperoxy fatty acids and is included as a comparative example of the present invention. A codon optimized gene (SEQ ID NO: 262) encoding for an alpha-dioxygenase variant (SEQ ID NO: 263), including an N-terminal amino acid sequence containing a His-tag was designed and synthesized by Genscript. After gene synthesis, the protein was expressed and purified. In brief, the complete synthetic gene sequence was subcloned into a pET30a vector using the NdeI/HindIII cloning sites. For heterologous expression, Escherichia coli BL21 (DE3) cells were transformed with the recombinant plasmid and a single colony was inoculated into LB medium containing kanamycin (50 mg/L). A pre-starter culture was then inoculated into flasks containing Magic Media (Thermo Fisher, Catalog # K6803) supplemented with kanamycin (50 mg/L) and incubated at 16 °C for 72 h. At an OD600nm = 0.5 - 1.0, 5-aminolevulinic acid (final concentration 0.5 mM) was added. Cells were harvested by centrifugation at 5000 rpm and 4°C and the pellet was lysed using a bacterial cell lysis buffer (B-PER - Themo Fisher, Waltham, MA). After centrifugation, the supernatant was collected, and the protein was purified by one-step purification using HisPur™ Ni-NTA Spin Columns (Thermo Scientific, Catalog # 88226) and standard protocols known in the art. The protein was concentrated using a 10 kDa MW cutoff Amicon Ultra centrifugal filter unit (Millipore Sigma, Catalog# UFC901024), followed by desalting using a disposable PD-10 desalting column (GE Healthcare Life Sciences, Catalog# 17085101) and a buffer containing 50 mM Tris-HCl, 500 mM NaCl, and 10% Glycerol at pH 8.0. […]
(§2) Reactions with alpha-dioxygenases were performed as follows. […] The reaction was incubated for up to 10 minutes at 37°C with 200 rpm agitation and the conversion was monitored using an oxygen sensor. The TON (in s-1) were calculated as the ratio between the initial rate of oxygen consumption (in µM/s) and the concentration of enzyme (in µM). […]

[2] = molecular target: T1, Pisum sativum αDOX (SEQ ID NO: 4), fatty acid alpha-dioxygenase, Q5GQ66, N-terminal His-tag variant SEQ ID NO: 255 (Pisum sativum, UniProt Q5GQ66); assay: as above; type: biochemical; conditions: fatty acid 100 µM, enzyme 6 ppm, 50 mM HEPES pH 9.0, 37°C; initial rate of oxygen consumption / enzyme concentration
T1 construct: made in house; host or cells: Escherichia coli BL21 (DE3), pET30a
T1 sequence (Q5GQ66 1-643): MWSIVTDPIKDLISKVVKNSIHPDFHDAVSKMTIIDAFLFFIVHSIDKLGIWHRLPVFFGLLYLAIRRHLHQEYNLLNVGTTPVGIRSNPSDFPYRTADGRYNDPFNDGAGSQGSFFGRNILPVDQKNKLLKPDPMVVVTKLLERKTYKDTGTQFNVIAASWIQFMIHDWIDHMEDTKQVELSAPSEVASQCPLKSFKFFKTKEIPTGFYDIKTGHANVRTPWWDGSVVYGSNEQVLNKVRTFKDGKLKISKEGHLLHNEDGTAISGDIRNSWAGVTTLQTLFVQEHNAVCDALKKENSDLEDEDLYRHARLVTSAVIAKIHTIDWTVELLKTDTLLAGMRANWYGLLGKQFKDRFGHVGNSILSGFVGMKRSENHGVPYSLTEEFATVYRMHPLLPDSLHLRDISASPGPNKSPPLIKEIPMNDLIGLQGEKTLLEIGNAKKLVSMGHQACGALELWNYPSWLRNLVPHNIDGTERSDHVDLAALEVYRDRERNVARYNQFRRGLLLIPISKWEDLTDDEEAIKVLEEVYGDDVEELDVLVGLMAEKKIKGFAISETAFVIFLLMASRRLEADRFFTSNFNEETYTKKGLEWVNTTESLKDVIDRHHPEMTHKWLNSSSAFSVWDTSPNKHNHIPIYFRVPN
Text: as §1, with “Pisum sativum” for “Solanum lycopersicum”, “4)” for “8)”, “an” for “a comparative”, “254)” for “262)”, “255),” for “263),”
as §2

With `CCCCCCCC/C=C\CCCCCCCC(=O)O` [Oleic Acid] the “Oleic Acid, TON” value [1] was 0.00 s⁻¹ and the “Oleic Acid, TON” value [2] was 1.40 s⁻¹.
In the case of `CCCCCCCCCCCCCCCC(=O)O` [Palmitic Acid], the “Palmitic Acid, TON” value [1] is reported as 0.00 s⁻¹ and the “Palmitic Acid, TON” value [2] is reported as 1.92 s⁻¹.
For `CCCCCCCCCCCCCCCCCC(=O)O` [Stearic Acid], the “Stearic Acid, TON” value [1] was 0.12 s⁻¹ and the “Stearic Acid, TON” value [2] was 0.80 s⁻¹.
